The results in this text go back to US4510136A (priority 1983, dated 1985).

What all share (assay type): in vivo
One test concerns Pyricularia oryzae. Briefly: whole plant or invertebrate. To be noted: for % Control of Rice Blast: 100 ppm spray, day before inoculation.
For a further test, the system named is Erysiphe cichoracearum. Briefly: Cucumber powdery mildew control on sprayed cucumber seedlings (Example 80). Conditions: 100 ppm spray, day before inoculation; for pest or weed control at 100 ppm: Golovinomyces cichoracearum, 168 h. As for the experimental part:
These suspensions were sprayed to the point of run-off, on cucumber seedlings. The following day, the plants were inoculated with a spore suspension of the fungus Erysiphe cichoracearum, causal agent of cucumber powdery mildew, and incubated in a growth room for 7 days. Disease ratings were then made. Treated plants from successful treatments had little or no powdery mildew in contrast to untreated plants which were covered with powdery mildew. Phytotoxicity in the form of growth reduction or hormonal effects was observed on some of the plants in association with disease control.

The subject of test [1] is Puccinia recondita var. tritici. In words: Wheat leaf rust control on sprayed wheat seedlings (Example 79). Conditions: 100 ppm spray, day before inoculation; for pest or weed control at 100 ppm: Puccinia recondita, 168 h. As for the experimental part: The compounds of this invention were dissolved in acetone in an amount equal to 6% of the final volume and then suspended at a concentration of 100 ppm in purified water containing 250 ppm of the surfactant TREM 014 (polyhydric alcohol esters). These suspensions were sprayed to the point of run-off on wheat seedlings. The following day, the plants were inoculated with a spore suspension of Puccinia recondita var. tritici, causal agent of wheat leaf rust, and incubated in a saturated humidity chamber at 20° for 24 hours and then in a growth room for an additional 7 days, when disease ratings were made. Treated plants from successful treatments had few or no rust pustules while the untreated plants had numerous rust pustules on each leaf.

The test system of the next test is Rhizoctonia solani. In words: Rice sheath blight control on sprayed rice seedlings (Example 87). To be noted: 100 ppm spray, day before inoculation; for pest or weed control at 100 ppm: Rhizoctonia solani, 168 h. The procedure: The compounds of the previous examples were again dissolved in acetone in an amount equal to 6% of the final volume and then suspended at a concentration of 100 ppm in purified water containing 250 ppm of the surfactant TREM 014 (polyhydric alcohol esters). This suspension was sprayed to the point of run-off on rice seedlings. The following day, the plants were inoculated with a mixture of bran and the mycelium of Rhizoctonia solani, causal agent of sheath blight of rice, and incubated in a growth room for 7 days. Disease ratings were then made. Treated plants from successful treatments had little sheath blight in contrast to untreated plants which were covered with sheath blight.

In a further test the test system is Cercospora arachidicola. In words: Peanut early leafspot control on sprayed peanut seedlings (Example 84). Conditions: 100 ppm spray, day before inoculation; for pest or weed control at 100 ppm: Mycosphaerella arachidis, 360 h, read-out: % Control Peanut Easly Leafspot. As for the experimental part:
These suspensions were sprayed to the point of run-off on peanut seedlings. The following day, the plants were inoculated with a spore suspension of Cercospora arachidicola, causal agent of peanut early leafspot, and incubated in a saturated humidity chamber at 27° for 24 hours and then in a growth room for an additional 14 days, when disease ratings were made. Treated plants from successful treatments had few or no leafspots while the untreated plants had numerous leafspots.

The next test has as its system Phytophthora infestans. Briefly: whole plant or invertebrate. Conditions: for % Control of Tomato Late Blight: 100 ppm spray, day before inoculation; for pest or weed control at 100 ppm: Phytophthora infestans, in Solanum lycopersicum, 168 h, read-out: % Control of Tomato Late Blight, 100 ppm spray, day before inoculation.
Another test concerns Helminthosporium maydis. In words: Southern corn leaf blight control on sprayed corn seedlings (Example 83). Conditions: 100 ppm spray, day before inoculation; for pest or weed control at 100 ppm: Bipolaris maydis, 192 h. As for the experimental part: The compounds of the previous examples were again dissolved in acetone in an amount equal to 6% of the final volume and then suspended at a concentration of 100 ppm in purified water containing 250 ppm of the surfactant TREM 014 (polyhydric alcohol esters). These suspensions were sprayed to the point of run-off on corn seedlings. The following day, the plants were inoculated with a spore suspension of Helminthosporium maydis, causal agent of southern corn leaf blight, and incubated in a saturated humidity chamber at 20° for 24 hours and then in a growth room for an additional 7 days, when disease ratings were made. Treated plants from successful treatments had few or no lesions while the untreated plants had numerous lesions on each leaf. Phytotoxicity expressed as growth reduction was observed on some of the plants in association with disease control.

A further test concerns Venturia inaequalis. In words: Apple scab control on sprayed apple seedlings (Example 82). To be noted: Venturia inaequalis, 100 ppm spray, day before inoculation. As for the experimental part:
These suspensions were sprayed to the point of run-off on apple seedlings. The following day, the plants were inoculated with a spore suspension of the fungus Venturia inaequalis, causal agent of apple scab, and incubated in a saturated humidity chamber at 20° for 24 hours and then in a growth room for an additional 10-12 days. Treated plants from successful treatments had fewer apple scab lesions when compared to untreated plants which were covered with scab lesions. Phytotoxicity expressed as growth reduction was observed on some of the plants in association with disease control.

Structures can show the parent of a compound that is named as a salt.

Regarding “2:1 complex of [bis(4-Fluorophenyl)]methyl(1H-1,2,4-triazol-1-ylmethyl)silane and Curpic Chloride”, the “% Control of Rice Blast” value with Pyricularia oryzae amounted to 100%. Further, in the test on Erysiphe cichoracearum, the “% Control Cucumber Powdery Mildew” value came to 100%. Further, the “% Control Wheat Rust” value in test [1] was 100%. For the same compound, the “% Control of Rice Sheath Blight” value in the test on Rhizoctonia solani amounted to 0%. Besides, the “% Control Peanut Easly Leafspot” value in the test on Cercospora arachidicola is 100%. Moreover, in the test with Phytophthora infestans, the “% Control of Tomato Late Blight” value turned out to be 40%. In addition, the “% Control of Southern Corn Leaf Blight” value with Helminthosporium maydis was 0%.
As for `C[Si](Cn1cncn1)(c1ccc(Cl)cc1)c1ccccc1Cl` (centres unmarked) [2-Chlorophenyl(4-chlorophenyl)methyl(1H-1,2,4-triazol-1-ylmethyl)silane], the pest or weed control at 100 ppm stood at 90% in the test with Venturia inaequalis; 100% with Erysiphe cichoracearum; 100% in test [1]; 70% in the test with Rhizoctonia solani; 90% with Cercospora arachidicola; 0% in the test with Phytophthora infestans. The same compound registered a pest or weed control at 100 ppm in the test with Helminthosporium maydis of 60%.
For the compound `C[Si](Cn1cncn1)(c1ccc(F)cc1)c1ccc(-c2ccccc2)cc1` (centres unmarked) [(1,1'-Biphenyl-4-yl)(4-fluorophenyl)methyl(1H-1,2,4-triazol-1-ylmethyl)silane], the pest or weed control at 100 ppm was found to be 100% in the test on Venturia inaequalis; 100% in the test on Erysiphe cichoracearum; 100% in test [1]; 0% in the test on Rhizoctonia solani; 100% with Cercospora arachidicola; 0% in the test with Phytophthora infestans. Also, in the test on Helminthosporium maydis, the pest or weed control at 100 ppm was 80%.
On to `C[Si](C)(Cn1cncn1)c1ccc(-c2ccccc2)cc1` [(1,1'-Biphenyl-4-yl)dimethyl(1H--1,2,4-triazol-1-ylmethyl)si] [4-Dodecylbenzenesulfonate Salt of (1,1'-Biphenyl-4-yl)dimethyl(1H-1,2,4-triazol-1-ylmethyl)silane], for which the “% Control of Southern Corn Leaf Blight” value in the test on Helminthosporium maydis is 100%.
For `CC(C)(C)O[Si](Cn1cncn1)(c1ccc(F)cc1)c1ccc(F)cc1` [(1,1-Dimethylethoxy)[bis(4-fluorophenyl)](1H-1,2,4-triazol-1-ylmethyl)silane], the pest or weed control at 100 ppm worked out at 100% in the test on Erysiphe cichoracearum and 0% with Helminthosporium maydis.
For `CC(C)O[Si](C)(Cn1cncn1)c1ccc(F)cc1` (centres unmarked) [(4-Fluorophenyl)methyl(2-propoxy)(1H-1,2,4-triazol-1-ylmethyl)silane] the same measures were 100% and 0%.
Take `CC(C)O[Si](Cn1cncn1)(OC(C)C)c1ccccc1` [Phenylbis(2-propoxy)(1H-1,2,4-triazol-1-ylmethyl)silane]: the pest or weed control at 100 ppm in the test with Venturia inaequalis came to 0%; in the test on Erysiphe cichoracearum, 100%; in test [1] it was 0%; in the test with Rhizoctonia solani, 0%; with Cercospora arachidicola, 0%; in the test with Phytophthora infestans, 0%. For the same compound, in the test with Helminthosporium maydis, the pest or weed control at 100 ppm worked out at 0%.
As for `C[Si](Cn1cncn1)(c1ccc(F)cc1)c1ccc(F)cc1.[Cl][Cu]` [[bis(4-Fluorophenyl)]methyl(1H-1,2,4-triazol-1-ylmethyl)silane, 1:1 complex with cuprous chloride], the “% Control of Rice Blast” value with Pyricularia oryzae is listed as 90%. The “% Control Cucumber Powdery Mildew” value with Erysiphe cichoracearum amounted to 100%. Moreover, in test [1], the “% Control Wheat Rust” value is recorded as 90%. Besides, the “% Control of Rice Sheath Blight” value in the test with Rhizoctonia solani is listed as 90%. In addition, the “% Control Peanut Easly Leafspot” value with Cercospora arachidicola is 100%. For the same compound, the “% Control of Tomato Late Blight” value in the test on Phytophthora infestans was found to be 0%. Besides, the “% Control of Southern Corn Leaf Blight” value in the test with Helminthosporium maydis is 0%.
On to `CC(n1cncn1)[Si](C)(c1ccc(F)cc1)c1ccc(F)cc1` (centres unmarked) [bis(4-Fluorophenyl)methyl[1-(1H-1,2,4-triazol-1-yl)ethyl]silane], for which the pest or weed control at 100 ppm with Venturia inaequalis came out at 100%; in the test with Pyricularia oryzae (Pyricularia oryzae, 168 h, read-out: % Control of Rice Blast, 100 ppm spray, day before inoculation), 0%; with Erysiphe cichoracearum, 100%; in test [1], 100%; with Rhizoctonia solani it was 80%; in the test on Cercospora arachidicola it was 100%. In addition, the pest or weed control at 100 ppm with Phytophthora infestans came to 0%.
